≈ marks a conversion by molar mass, not a printed value. Like-named read-outs stand apart in the source and are kept apart here.
What was measured:
[1] = tested on: ATCC27853; experiment: MIC determination, control strain; assay type: cell-based
Method: Determination methods of a Minimal Inhibitory Concentration (MIC) and a Minimum Bactericidal Concentration (MBC) of a test product: the MIC and the MBC of the Pithecellobium clypearia Benth water or ethanol extract to the MDRAB are determined by a microdilution broth method.

[2] = tested on: MDRAB; experiment: MIC determination, microdilution broth method; assay type: cell-based, Acinetobacter baumannii; details: Acinetobacter baumannii, read-out: MIC
Method: Determination methods of a Minimal Inhibitory Concentration (MIC) and a Minimum Bactericidal Concentration (MBC) of a test product: the MIC and the MBC of the Pithecellobium clypearia Benth water or ethanol extract to the MDRAB are determined by a microdilution broth method. And it is operated by referring to the microdilution broth method recommended by National Committee for Clinical Laboratory Standards (NCCLS).

C[C@@H](O)[C@H]1C(=O)N2C(C(=O)O)=C(SCCN=CN)C[C@H]12 [IMP, imipenem]
MIC ([1]; EA=10% ethanol extract, read-out: MIC): 1 µg/mL (≈ 3.34 µM)
MIC ([1]; EA=60% ethanol extract, read-out: MIC): 1 µg/mL (≈ 3.34 µM)
MIC ([1]; EA=95% ethanol extract, read-out: MIC): 1 µg/mL (≈ 3.34 µM)
MIC ([1]; EA=P. clypearia 10% ethanol extract, read-out: MIC (single use)): 4 µg/mL (≈ 13.4 µM)
MIC ([1]; EA=P. clypearia water extract, read-out: MIC (single use)): 4 µg/mL (≈ 13.4 µM)
MIC ([1]; EA=water extract, read-out: MIC): 1 µg/mL (≈ 3.34 µM)
MIC ([1]; single use, EA = 60% ethanol extract, read-out: MIC): 4 µg/mL (≈ 13.4 µM)
MIC ([1]; single use, EA = 95% ethanol extract, read-out: MIC): 4 µg/mL (≈ 13.4 µM)
MIC ([2]; strain A1, EA=60% ethanol extract): 1 µg/mL (≈ 3.34 µM)
MIC ([2]; strain A1, EA=95% ethanol extract): 1 µg/mL (≈ 3.34 µM)
MIC ([2]; strain A1, single use, EA=10% ethanol extract): 1 µg/mL (≈ 3.34 µM)
MIC ([2]; strain A1, single use, EA=water extract): 1 µg/mL (≈ 3.34 µM)
MIC ([2]; strain A2, EA=60% ethanol extract): 32 µg/mL (≈ 107 µM)
MIC ([2]; strain A2, EA=95% ethanol extract): 32 µg/mL (≈ 107 µM)
MIC ([2]; strain A2, single use, EA=10% ethanol extract): 32 µg/mL (≈ 107 µM)
MIC ([2]; strain A2, single use, EA=water extract): 32 µg/mL (≈ 107 µM)
MIC ([2]; strain A3, EA=60% ethanol extract): 32 µg/mL (≈ 107 µM)
MIC ([2]; strain A3, EA=95% ethanol extract): 32 µg/mL (≈ 107 µM)
MIC ([2]; strain A3, single use, EA=10% ethanol extract): 32 µg/mL (≈ 107 µM)
MIC ([2]; strain A3, single use, EA=water extract): 32 µg/mL (≈ 107 µM)
MIC ([2]; strain A4, EA=60% ethanol extract): 8 µg/mL (≈ 26.7 µM)
MIC ([2]; strain A4, EA=95% ethanol extract): 8 µg/mL (≈ 26.7 µM)
MIC ([2]; strain A4, single use, EA=10% ethanol extract): 8 µg/mL (≈ 26.7 µM)
MIC ([2]; strain A4, single use, EA=water extract): 8 µg/mL (≈ 26.7 µM)
MIC ([2]; strain A5, EA=60% ethanol extract): 32 µg/mL (≈ 107 µM)
MIC ([2]; strain A5, EA=95% ethanol extract): 32 µg/mL (≈ 107 µM)
MIC ([2]; strain A5, single use, EA=10% ethanol extract): 32 µg/mL (≈ 107 µM)
MIC ([2]; strain A5, single use, EA=water extract): 32 µg/mL (≈ 107 µM)
MIC ([2]; strain A6, EA=60% ethanol extract): 32 µg/mL (≈ 107 µM)
MIC ([2]; strain A6, EA=95% ethanol extract): 32 µg/mL (≈ 107 µM)
MIC ([2]; strain A6, single use, EA=10% ethanol extract): 32 µg/mL (≈ 107 µM)
MIC ([2]; strain A6, single use, EA=water extract): 32 µg/mL (≈ 107 µM)
MIC ([2]; strain A7, EA=60% ethanol extract): 32 µg/mL (≈ 107 µM)
MIC ([2]; strain A7, EA=95% ethanol extract): 32 µg/mL (≈ 107 µM)
MIC ([2]; strain A7, single use, EA=10% ethanol extract): 32 µg/mL (≈ 107 µM)
MIC ([2]; strain A7, single use, EA=water extract): 32 µg/mL (≈ 107 µM)
MIC ([2]; strain A8, EA=60% ethanol extract): 32 µg/mL (≈ 107 µM)
MIC ([2]; strain A8, EA=95% ethanol extract): 32 µg/mL (≈ 107 µM)
MIC ([2]; strain A8, single use, EA=10% ethanol extract): 32 µg/mL (≈ 107 µM)
MIC ([2]; strain A8, single use, EA=water extract): 32 µg/mL (≈ 107 µM)
MIC ([2]; strain A9, EA=60% ethanol extract): 32 µg/mL (≈ 107 µM)
MIC ([2]; strain A9, EA=95% ethanol extract): 32 µg/mL (≈ 107 µM)
MIC ([2]; strain A9, single use, EA=10% ethanol extract): 32 µg/mL (≈ 107 µM)
MIC ([2]; strain A9, single use, EA=water extract): 32 µg/mL (≈ 107 µM)
MIC ([2]; strain A10, EA=60% ethanol extract): 16 µg/mL (≈ 53.4 µM)
MIC ([2]; strain A10, EA=95% ethanol extract): 16 µg/mL (≈ 53.4 µM)
MIC ([2]; strain A10, single use, EA=10% ethanol extract): 16 µg/mL (≈ 53.4 µM)
MIC ([2]; strain A10, single use, EA=water extract): 16 µg/mL (≈ 53.4 µM)
MIC ([2]; strain A11, EA=60% ethanol extract): 32 µg/mL (≈ 107 µM)
MIC ([2]; strain A11, EA=95% ethanol extract): 32 µg/mL (≈ 107 µM)
MIC ([2]; strain A11, single use, EA=10% ethanol extract): 32 µg/mL (≈ 107 µM)
MIC ([2]; strain A11, single use, EA=water extract): 32 µg/mL (≈ 107 µM)
MIC ([2]; strain A12, EA=60% ethanol extract): 32 µg/mL (≈ 107 µM)
MIC ([2]; strain A12, EA=95% ethanol extract): 32 µg/mL (≈ 107 µM)
MIC ([2]; strain A12, single use, EA=10% ethanol extract): 32 µg/mL (≈ 107 µM)
MIC ([2]; strain A12, single use, EA=water extract): 32 µg/mL (≈ 107 µM)
MIC ([2]; strain A13, EA=60% ethanol extract): 32 µg/mL (≈ 107 µM)
MIC ([2]; strain A13, EA=95% ethanol extract): 32 µg/mL (≈ 107 µM)
MIC ([2]; strain A13, single use, EA=10% ethanol extract): 32 µg/mL (≈ 107 µM)
MIC ([2]; strain A13, single use, EA=water extract): 32 µg/mL (≈ 107 µM)
MIC ([2]; strain A14, EA=60% ethanol extract): 32 µg/mL (≈ 107 µM)
MIC ([2]; strain A14, EA=95% ethanol extract): 32 µg/mL (≈ 107 µM)
MIC ([2]; strain A14, single use, EA=10% ethanol extract): 32 µg/mL (≈ 107 µM)
MIC ([2]; strain A14, single use, EA=water extract): 32 µg/mL (≈ 107 µM)
MIC ([2]; strain A15, EA=60% ethanol extract): 32 µg/mL (≈ 107 µM)
MIC ([2]; strain A15, EA=95% ethanol extract): 32 µg/mL (≈ 107 µM)
MIC ([2]; strain A15, single use, EA=10% ethanol extract): 32 µg/mL (≈ 107 µM)
MIC ([2]; strain A15, single use, EA=water extract): 32 µg/mL (≈ 107 µM)
MIC ([2]; strain A16, EA=60% ethanol extract): 32 µg/mL (≈ 107 µM)
MIC ([2]; strain A16, EA=95% ethanol extract): 32 µg/mL (≈ 107 µM)
MIC ([2]; strain A16, single use, EA=10% ethanol extract): 32 µg/mL (≈ 107 µM)
MIC ([2]; strain A16, single use, EA=water extract): 32 µg/mL (≈ 107 µM)
MIC ([2]; strain A17, EA=60% ethanol extract): 16 µg/mL (≈ 53.4 µM)
MIC ([2]; strain A17, EA=95% ethanol extract): 16 µg/mL (≈ 53.4 µM)
MIC ([2]; strain A17, single use, EA=10% ethanol extract): 16 µg/mL (≈ 53.4 µM)
MIC ([2]; strain A17, single use, EA=water extract): 16 µg/mL (≈ 53.4 µM)
MIC ([2]; strain A18, EA=60% ethanol extract): 32 µg/mL (≈ 107 µM)
MIC ([2]; strain A18, EA=95% ethanol extract): 32 µg/mL (≈ 107 µM)
MIC ([2]; strain A18, single use, EA=10% ethanol extract): 32 µg/mL (≈ 107 µM)
MIC ([2]; strain A18, single use, EA=water extract): 32 µg/mL (≈ 107 µM)
MIC ([2]; strain A19, EA=60% ethanol extract): 32 µg/mL (≈ 107 µM)
MIC ([2]; strain A19, EA=95% ethanol extract): 32 µg/mL (≈ 107 µM)

From patent US11793849B2, “Method of Chinese herbal medicine extract used for treating multiple diseases caused by drug resistant bacteria infection” (priority 2016, dated 2023)
